The source of these data is US8586588B2, “Aryl pyridazinone derivatives and their use as H3 receptor ligands” (Cephalon, Inc., priority 2006, dated 2013).

Some results are limits rather than exact numbers.

Data set [1] has as its target T1, rat histamine H3 receptor (Rattus norvegicus, UniProt Q9QYN8).
T1 construct: encoding the entire 445-amino-acid rat histamine H3 receptor; expressed in transfected cells
Description: Rat H3 radioligand binding ([3H]-N-alpha-methylhistamine, CHO-A3 cell membranes, SPA). Particulars: Table B, binding constant as letter class; read-out: rat H3 Ki. The procedure, abridged: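 Membranes from CHO-A3 cells stably expressing rat H3 (10 μg protein) incubated 4 h at room temperature in 50 mM Tris-HCl pH 7.4, 5 mM MgCl2, 0.1% BSA with ~1 nM [3H]-N-alpha-methylhistamine and compound (0.01 nM-30 μM). Bound radioligand read by scintillation proximity; nonspecific binding with 10 μM clobenpropit.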

A further data set deals with T2, human H3 receptor (Homo sapiens, UniProt Q9Y5N1).
T2 construct: expressed in transfected cells
T2 sequence (Q9Y5N1 whole entry): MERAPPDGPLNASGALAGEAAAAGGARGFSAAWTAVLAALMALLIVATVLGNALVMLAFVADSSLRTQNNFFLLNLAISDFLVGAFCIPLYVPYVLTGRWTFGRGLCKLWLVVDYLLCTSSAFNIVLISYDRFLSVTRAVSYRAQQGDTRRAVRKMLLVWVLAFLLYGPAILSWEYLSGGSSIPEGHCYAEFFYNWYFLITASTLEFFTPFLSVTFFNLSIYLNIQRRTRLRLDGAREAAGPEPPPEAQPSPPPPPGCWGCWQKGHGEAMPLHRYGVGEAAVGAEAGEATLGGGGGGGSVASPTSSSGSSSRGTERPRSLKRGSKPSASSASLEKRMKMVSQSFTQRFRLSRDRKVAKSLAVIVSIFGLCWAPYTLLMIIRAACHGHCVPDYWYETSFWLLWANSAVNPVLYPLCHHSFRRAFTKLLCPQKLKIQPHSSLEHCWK
Description: Human H3 radioligand binding ([3H]-N-alpha-methylhistamine, CHO cell membranes, SPA). Particulars: Table B, binding constant as letter class. The procedure, abridged: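 CHO cell membranes expressing human H3 (10 μg protein/well) incubated 4 h at room temperature, in the dark, with ~1 nM [3H]-N-alpha-methylhistamine, compounds (0.01 nM-30 μM) and SPA beads in 50 mM Tris HCl pH 7.4, 5 mM MgCl2, 0.1% BSA. Non-specific binding defined with 10 μM clobenpropit.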

T1 sequence (Q9QYN8 whole entry): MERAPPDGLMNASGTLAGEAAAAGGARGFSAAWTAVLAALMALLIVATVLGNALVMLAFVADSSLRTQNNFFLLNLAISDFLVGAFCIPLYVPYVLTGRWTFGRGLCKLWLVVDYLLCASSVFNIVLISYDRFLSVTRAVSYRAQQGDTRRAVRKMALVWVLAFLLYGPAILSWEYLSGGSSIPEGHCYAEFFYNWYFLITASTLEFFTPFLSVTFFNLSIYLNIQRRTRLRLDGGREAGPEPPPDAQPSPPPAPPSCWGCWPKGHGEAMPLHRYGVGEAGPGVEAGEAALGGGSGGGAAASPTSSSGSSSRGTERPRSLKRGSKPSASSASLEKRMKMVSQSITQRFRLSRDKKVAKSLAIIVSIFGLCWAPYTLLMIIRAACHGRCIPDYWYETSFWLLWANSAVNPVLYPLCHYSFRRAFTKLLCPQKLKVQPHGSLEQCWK

Broadly, the melting point is the temperature of the solid-liquid transition. Broadly, the Ki is the dissociation constant of the complex between target and ligand, obtained from inhibition or displacement. `C[C@@H]1CCCN1CCCOc1ccc(-c2ccc(=O)[nH]n2)cn1` [Example 146, 6-{6-[3-((R)-2-Methyl-pyrrolidin-1-yl)-propoxy]-pyridin-3-yl}-2H-pyridazin-3-one] gave a melting point of 178 to 181 °C. Further, the Ki in data set [1] was 0.1 to 100 nM. The compound further showed a Ki at human H3 receptor of 0.1 to 100 nM.
Compound `O=c1ccc(-c2ccc(OCCCN3CCCCC3)nc2)n[nH]1` [Example 147, 6-[6-(3-Piperidin-1-yl-propoxy)-pyridin-3-yl]-2H-pyridazin-3-one] gave a melting point of 155 to 158 °C. Further, the Ki in data set [1] fell in the range of 101 to 500 nM. Besides, the Ki at human H3 receptor fell in the range of 0.1 to 100 nM.
The compound `O=C1CCC(c2ccc(OC3CCN(C4CCC4)CC3)cc2)=NN1` [Example 150, 6-[4-(1-Cyclobutyl-piperidin-4-yloxy)-phenyl]-4,5-dihydro-2H-pyridazin-3-one] registered a melting point of 196 to 198 °C. Besides, the inhibition constant Ki in data set [1] lay in the range of 0.1 to 100 nM. For the same compound, the Ki on human H3 receptor lay within 0.1 to 100 nM.
`O=C1CCC(c2ccc(OC3CCN(C4CCC4)CC3)c(F)c2)=NN1` [Example 151, 6-[4-(1-Cyclobutyl-piperidin-4-yloxy)-3-fluoro-phenyl]-4,5-dihydro-2H-pyridazin-3-one] had a melting point of 195 to 197 °C. Besides, the Ki in data set [1] is 0.1 to 100 nM. The same compound displayed a Ki on human H3 receptor of 0.1 to 100 nM.
Turning to `CC1(C)CC(c2ccc(OC3CCN(C4CCC4)CC3)cc2)=NNC1=O` [Example 152, 6-[4-(1-Cyclobutyl-piperidin-4-yloxy)-phenyl]-4,4-dimethyl-4,5-dihydro-2H-pyridazin-3-one], the melting point fell in the range of 157 to 158 °C. Further, the inhibition constant (Ki) in data set [1] fell in the range of 0.1 to 100 nM. At human H3 receptor, this compound had a Ki of 0.1 to 100 nM.
`CC1(C)CC(c2ccc(OC3CCN(C4CCC4)CC3)c(F)c2)=NNC1=O` [Example 153, 6-[4-(1-Cyclobutyl-piperidin-4-yloxy)-3-fluoro-phenyl]-4,4-dimethyl-4,5-dihydro-2H-pyridazin-3-one] showed a melting point of 147 to 149 °C. Also, in data set [1], the Ki fell in the range of 0.1 to 100 nM. Also, the Ki at human H3 receptor was 0.1 to 100 nM.
In turn, `O=c1ccc(-c2ccc(OC3CCN(C4CCCC4)CC3)cc2)n[nH]1` [Example 154, 6-[4-(1-Cyclopentyl-piperidin-4-yloxy)-phenyl]-2H-pyridazin-3-one] had a melting point of 211 to 213 °C. Also, the inhibition constant Ki in data set [1] lay in the range of 0.1 to 100 nM. The same compound yielded a Ki on human H3 receptor of 0.1 to 100 nM.
The compound `O=c1ccc(-c2ccc(OC3CCN(C4CCC4)CC3)cc2)n[nH]1` [Example 155, 6-[4-(1-Cyclobutyl-piperidin-4-yloxy)-phenyl]-2H-pyridazin-3-one] yielded a melting point of 215 to 220 °C. For the same compound, the Ki in data set [1] fell in the range of 0.1 to 100 nM. The Ki on human H3 receptor was in the range of 0.1 to 100 nM.
With `O=c1ccc(-c2ccc(OC3CCN(C4CCC4)CC3)c(F)c2)n[nH]1` [Example 156, 6-[4-(1-Cyclobutyl-piperidin-4-yloxy)-3-fluoro-phenyl]-2H-pyridazin-3-one], the melting point fell in the range of 236 to 238 °C. For the same compound, the Ki in data set [1] fell in the range of 0.1 to 100 nM. The Ki on human H3 receptor lay within 0.1 to 100 nM.
Turning to `O=C1CCC(c2ccc(O[C@@H]3CCN(C4CCCCC4)C3)cc2)=NN1` [Example 159, 6-[4-((R)-1-Cyclohexyl-pyrrolidin-3-yloxy)-phenyl]-4,5-dihydro-2H-pyridazin-3-one], the melting point was in the range of 184 to 186 °C. Further, in data set [1], the Ki is above 1000 nM. On human H3 receptor, the Ki was above 1000 nM.
In turn, `O=c1ccc(-c2ccc(O[C@@H]3CCN(C4CCCCC4)C3)cc2)n[nH]1` [Example 160, 6-[4-((R)-1-Cyclohexyl-pyrrolidin-3-yloxy)-phenyl]-2H-pyridazin-3-one] yielded a melting point of 200 to 202 °C. Moreover, in data set [1], the Ki lay within 101 to 500 nM. The Ki on human H3 receptor fell in the range of 101 to 500 nM.
Compound `O=C1CCC(c2ccc(OC3CCN(C4CCC4)CC3)cc2)=NN1C1CCC1` [Example 163, 2-Cyclobutyl-6-[4-(1-cyclobutyl-piperidin-4-yloxy)-phenyl]-4,5-dihydro-2H-pyridazin-3-one] yielded a melting point of 120 to 123 °C. For the same compound, the Ki in data set [1] lay within 0.1 to 100 nM. This compound also showed a Ki on human H3 receptor of 0.1 to 100 nM.
`O=C1CCC(c2ccc(OC3CCN(C4CCCC4)CC3)cc2)=NN1C1CCC1` [Example 164, 2-Cyclobutyl-6-[4-(1-cyclopentyl-piperidin-4-yloxy)-phenyl]-4,5-dihydro-2H-pyridazin-3-one] returned a melting point of 100 to 104 °C. In addition, in data set [1], the Ki lay within 0.1 to 100 nM. This compound registered an inhibition constant (Ki) on human H3 receptor of 0.1 to 100 nM.
Regarding `O=C1CCC(c2ccc(OC3CCNCC3)cc2)=NN1C1CCC1` [Example 165, 2-Cyclobutyl-6-[4-(piperidin-4-yloxy)-phenyl]-4,5-dihydro-2H-pyridazin-3-one], the melting point lay within 168 to 170 °C. The inhibition constant Ki in data set [1] was above 1000 nM. In addition, the Ki at human H3 receptor is above 1000 nM.
The compound `O=C1CCC(c2ccc(OC3CCN(C4CCC4)CC3)cc2)=NN1CC(F)(F)F` [Example 166, 6-[4-(1-Cyclobutyl-piperidin-4-yloxy)-phenyl]-2-(2,2,2-trifluoro-ethyl)-4,5-dihydro-2H-pyridazin-3-one] displayed a melting point of 146 to 147 °C. Also, the Ki in data set [1] fell in the range of 0.1 to 100 nM. At human H3 receptor, this compound gave an inhibitory constant (Ki) of 0.1 to 100 nM.
Turning to `O=C1CCC(c2ccc(OC3CCN(C4CCCC4)CC3)cc2)=NN1CC(F)(F)F` [Example 167, 6-[4-(1-Cyclopentyl-piperidin-4-yloxy)-phenyl]-2-(2,2,2-trifluoro-ethyl)-4,5-dihydro-2H-pyridazin-3-one], the melting point was 225 to 227 °C. Besides, the Ki in data set [1] is 0.1 to 100 nM. Further, on human H3 receptor, the Ki lay in the range of 0.1 to 100 nM.
Compound `C[C@@H]1CCCN1CCCOc1ccc(C2=NN(CC(F)(F)F)C(=O)CC2)cc1` [Example 168, 6-{4-[3-((R)-2-Methyl-pyrrolidin-1-yl)-propoxy]-phenyl}-2-(2,2,2-trifluoro-ethyl)-4,5-dihydro-2H-pyridazin-3-one] gave a melting point of 76 to 78 °C. The Ki in data set [1] was 0.1 to 100 nM. The same compound gave a Ki at human H3 receptor of 0.1 to 100 nM.
Consider `O=C1CCC(c2ccc(OCCCN3CCCCC3)cc2)=NN1CC(F)(F)F` [Example 169, 6-{4-[3-piperidin-1-yl-propoxy]-phenyl}-2-(2,2,2-trifluoro-ethyl)-4,5-dihydro-2H-pyridazin-3-one], for which the melting point was 87 to 89 °C. In addition, the Ki in data set [1] lay within 0.1 to 100 nM. On human H3 receptor, the Ki is 0.1 to 100 nM.
Consider `C[C@@H]1CCCN1CCCOc1ccc(-c2ccc(=O)n(CC(F)(F)F)n2)cc1` [Example 170, 6-{4-[3-((R)-2-Methyl-pyrrolidin-1-yl)-propoxy]-phenyl}-2-(2,2,2-trifluoro-ethyl)-2H-pyridazin-3-one], for which the melting point was 121 to 123 °C. In addition, in data set [1], the Ki lay within 0.1 to 100 nM. Besides, the Ki on human H3 receptor lay within 0.1 to 100 nM.
Take `O=c1ccc(-c2ccc(OCCCN3CCCCC3)cc2)nn1CC(F)(F)F` [Example 171, 6-[4-(3-Piperidin-1-yl-propoxy)-phenyl]-2-(2,2,2-trifluoro-ethyl)-2H-pyridazin-3-one]: the melting point lay in the range of 128 to 130 °C. The Ki in data set [1] was in the range of 0.1 to 100 nM. Besides, the Ki at human H3 receptor lay within 0.1 to 100 nM.
`C[C@@H]1CCCN1CCCOc1ccc(C2=NNC(=O)C3CCC23)cc1` (stereo partly drawn) [Example 173, 5-{4-[3-((R)-2-Methyl-pyrrolidin-1-yl)-propoxy]-phenyl}-3,4-diaza-bicyclo[4.2.0]oct-4-en-2-one] showed a melting point of 218 to 220 °C. Also, in data set [1], the Ki was 0.1 to 100 nM. In addition, on human H3 receptor, the Ki was 0.1 to 100 nM.
